Three compounds from ChEMBL document CHEMBL3779848, “Effect of chlorine substituent on cytotoxic activities: Design and synthesis of systematically modified 2,4-diphenyl-5H-indeno[1,2-b]pyridines” (Bioorg Med Chem Lett, 2016) can be followed below.

In test [1] the target is T1, DNA topoisomerase 1 (Homo sapiens) (UniProt P11387).
T1 sequence (whole entry): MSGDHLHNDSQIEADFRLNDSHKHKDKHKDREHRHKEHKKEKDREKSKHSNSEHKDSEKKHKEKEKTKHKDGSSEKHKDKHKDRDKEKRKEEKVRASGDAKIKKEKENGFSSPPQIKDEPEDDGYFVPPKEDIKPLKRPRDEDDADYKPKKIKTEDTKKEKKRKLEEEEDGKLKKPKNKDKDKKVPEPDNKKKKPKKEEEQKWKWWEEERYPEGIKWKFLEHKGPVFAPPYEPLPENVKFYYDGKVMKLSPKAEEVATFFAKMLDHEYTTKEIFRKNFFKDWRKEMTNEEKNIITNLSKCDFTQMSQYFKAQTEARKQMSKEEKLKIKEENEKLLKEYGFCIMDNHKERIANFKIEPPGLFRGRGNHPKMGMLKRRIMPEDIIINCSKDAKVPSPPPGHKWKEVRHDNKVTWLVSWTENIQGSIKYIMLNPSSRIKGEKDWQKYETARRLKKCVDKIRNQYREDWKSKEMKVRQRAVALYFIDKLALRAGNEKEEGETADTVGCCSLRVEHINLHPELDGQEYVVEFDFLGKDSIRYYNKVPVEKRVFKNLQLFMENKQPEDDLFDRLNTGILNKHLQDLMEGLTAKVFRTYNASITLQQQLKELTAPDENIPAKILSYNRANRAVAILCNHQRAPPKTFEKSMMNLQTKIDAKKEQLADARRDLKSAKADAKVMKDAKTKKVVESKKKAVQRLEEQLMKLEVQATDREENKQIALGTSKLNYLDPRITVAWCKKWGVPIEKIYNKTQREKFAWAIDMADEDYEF
Briefly: Inhibition of human recombinant DNA topoisomerase 1 at 100 uM assessed as relaxation of supercoiled DNA pBR322 after 30 mins by Agarose gel electrophoresis.

Test [2] deals with T47D. The test can be described thus: Potency index, ratio of IC50 for adriamycin to IC50 for test compound for cytotoxicity against human T47D cells. In kind it is functional.
Test [3] concerns the target DNA topoisomerase 2-alpha (Homo sapiens) (UniProt P11388). The test can be described thus: Inhibition of human recombinant DNA topoisomerase 2alpha at 100 uM assessed as relaxation of supercoiled DNA pBR322 after 30 mins by Agarose gel electrophoresis.
The subject of test [4] is HeLa. Briefly: Cytotoxicity against human HeLa cells after 3 days by CCK8 assay. The settings on record: 72 h. It counts as functional, cell-based.
Test [5] concerns the target T1, DNA topoisomerase 1 (Homo sapiens). Briefly: Inhibition of human recombinant DNA topoisomerase 1 at 20 uM assessed as relaxation of supercoiled DNA pBR322 after 30 mins by Agarose gel electrophoresis.
The nature of test [6]: Potency index, ratio of IC50 for adriamycin to IC50 for test compound for cytotoxicity against human HCT15 cells. In kind it is functional, HCT-15.
Test [7] can be described thus: Cytotoxicity against human HCT15 cells after 3 days by CCK8 assay. In kind it is functional, cell-based. The settings on record: HCT-15, 72 h.
The subject of test [8] is HeLa. Briefly: Potency index, ratio of IC50 for adriamycin to IC50 for test compound for cytotoxicity against human HeLa cells. In kind it is functional.
For test [9], the system named is T47D. The test can be described thus: Cytotoxicity against human T47D cells after 3 days by CCK8 assay. In kind it is functional, cell-based. The settings on record: 72 h.

DNA topoisomerase 2-alpha (Homo sapiens), sequence (P11388 whole entry): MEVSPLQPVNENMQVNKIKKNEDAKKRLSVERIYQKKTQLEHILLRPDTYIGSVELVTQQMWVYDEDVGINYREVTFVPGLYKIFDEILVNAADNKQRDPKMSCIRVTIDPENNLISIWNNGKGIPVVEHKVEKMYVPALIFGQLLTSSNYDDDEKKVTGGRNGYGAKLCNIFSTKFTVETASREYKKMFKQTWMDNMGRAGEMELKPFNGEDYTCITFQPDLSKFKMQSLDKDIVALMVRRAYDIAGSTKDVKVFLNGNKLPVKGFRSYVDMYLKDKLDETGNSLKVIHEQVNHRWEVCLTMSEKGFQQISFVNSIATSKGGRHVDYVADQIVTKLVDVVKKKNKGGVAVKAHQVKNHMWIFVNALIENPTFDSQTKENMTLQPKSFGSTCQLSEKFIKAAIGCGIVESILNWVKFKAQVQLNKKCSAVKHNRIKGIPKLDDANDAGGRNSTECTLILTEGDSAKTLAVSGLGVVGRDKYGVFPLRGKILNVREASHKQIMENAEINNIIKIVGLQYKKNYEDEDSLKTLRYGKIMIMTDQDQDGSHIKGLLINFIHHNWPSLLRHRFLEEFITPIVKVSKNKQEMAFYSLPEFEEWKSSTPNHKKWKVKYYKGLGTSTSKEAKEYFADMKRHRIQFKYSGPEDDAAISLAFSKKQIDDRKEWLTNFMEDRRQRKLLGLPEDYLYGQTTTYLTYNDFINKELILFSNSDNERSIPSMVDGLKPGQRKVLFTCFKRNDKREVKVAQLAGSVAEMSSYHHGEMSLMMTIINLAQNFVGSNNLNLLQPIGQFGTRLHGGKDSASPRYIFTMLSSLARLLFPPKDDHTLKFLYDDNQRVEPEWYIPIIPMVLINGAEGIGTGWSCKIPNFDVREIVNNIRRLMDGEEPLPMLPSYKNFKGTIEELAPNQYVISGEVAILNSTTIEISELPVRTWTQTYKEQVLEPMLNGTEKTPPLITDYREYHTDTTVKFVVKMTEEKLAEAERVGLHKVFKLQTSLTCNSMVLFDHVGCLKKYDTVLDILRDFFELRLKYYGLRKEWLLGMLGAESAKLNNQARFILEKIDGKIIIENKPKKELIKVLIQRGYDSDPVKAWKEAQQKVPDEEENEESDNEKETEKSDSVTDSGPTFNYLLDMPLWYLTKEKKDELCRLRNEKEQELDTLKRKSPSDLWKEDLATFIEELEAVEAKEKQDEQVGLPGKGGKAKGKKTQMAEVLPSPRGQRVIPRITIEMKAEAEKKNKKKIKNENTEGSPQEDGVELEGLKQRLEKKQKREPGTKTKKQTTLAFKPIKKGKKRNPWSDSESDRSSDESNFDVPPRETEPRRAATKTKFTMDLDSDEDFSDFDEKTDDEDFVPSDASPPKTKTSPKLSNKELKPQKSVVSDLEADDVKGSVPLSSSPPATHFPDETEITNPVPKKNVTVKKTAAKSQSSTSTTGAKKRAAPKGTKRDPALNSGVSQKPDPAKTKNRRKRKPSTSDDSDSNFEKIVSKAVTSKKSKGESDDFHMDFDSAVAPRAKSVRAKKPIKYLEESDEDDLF

Regarding `Oc1ccc(-c2cc(-c3cccc(Cl)c3)c3c(n2)-c2ccccc2C3)cc1`, the values for the inhibition in test [1], in [3] and in test [5] were 35.5%, 4.9% and 2.8%, respectively. The figures for the “Ratio IC50” value (in the test on T47D [2]; in test [6]; in the test with HeLa [8]) were 0.9, 0.12 and 0.22, respectively. For the same compound, the IC50 was found to be 3680 nM in the test with HeLa [4], 810 nM in [7] and 1630 nM with T47D [9].
Take `Oc1cccc(-c2cc(-c3ccccc3Cl)nc3c2Cc2ccccc2-3)c1`: the inhibition is 0% in [1] and 3.1% in [3]. Also, the results for the “Ratio IC50” value (in the test on T47D [2]; in test [6]; in the test with HeLa [8]) were 4.74, 0.25 and 0.41, respectively. For the same compound, the IC50 with HeLa [4] worked out at 2010 nM; in test [7], 400 nM; with T47D [9], 310 nM.
For `Oc1ccc(-c2cc(-c3ccccc3)nc3c2Cc2ccccc2-3)cc1`, the inhibition in test [1] worked out at 25.9%; in [3], 65.9%. For the same compound, the “Ratio IC50” value turned out to be 0.98 in the test with T47D [2], 0.57 in test [6] and 0.18 in the test on HeLa [8]. Besides, the figures for the IC50 (in the test with HeLa [4]; in test [7]; in the test with T47D [9]) were 4840 nM, 2150 nM and 1360 nM, respectively.
